Patent US12227500B2, “Substituted pyrrolo[2,3-b]pyridines for suppressing toxic endoplasmic reticulum stress” (THE TRUSTEES OF COLUMBIA UNIVERSITY IN THE CITY OF NEW YORK, priority 2018, dated 2025)

Legend:
Assay in all cases: Radiolabeled ATP kinase assay, panel of 60 kinases (Table S5)
Format in all cases: biochemical
[1] = target: T1, panel of 60 human kinases (Homo sapiens, UniProt Q13470); conditions: TNK1; 0.1 μM; 10 μM ATP; read-out: % Enzyme Activity (relative to DSMO controls)
T1 construct: purchased Reaction Biology Corp
T1 sequence (Q13470 1-666): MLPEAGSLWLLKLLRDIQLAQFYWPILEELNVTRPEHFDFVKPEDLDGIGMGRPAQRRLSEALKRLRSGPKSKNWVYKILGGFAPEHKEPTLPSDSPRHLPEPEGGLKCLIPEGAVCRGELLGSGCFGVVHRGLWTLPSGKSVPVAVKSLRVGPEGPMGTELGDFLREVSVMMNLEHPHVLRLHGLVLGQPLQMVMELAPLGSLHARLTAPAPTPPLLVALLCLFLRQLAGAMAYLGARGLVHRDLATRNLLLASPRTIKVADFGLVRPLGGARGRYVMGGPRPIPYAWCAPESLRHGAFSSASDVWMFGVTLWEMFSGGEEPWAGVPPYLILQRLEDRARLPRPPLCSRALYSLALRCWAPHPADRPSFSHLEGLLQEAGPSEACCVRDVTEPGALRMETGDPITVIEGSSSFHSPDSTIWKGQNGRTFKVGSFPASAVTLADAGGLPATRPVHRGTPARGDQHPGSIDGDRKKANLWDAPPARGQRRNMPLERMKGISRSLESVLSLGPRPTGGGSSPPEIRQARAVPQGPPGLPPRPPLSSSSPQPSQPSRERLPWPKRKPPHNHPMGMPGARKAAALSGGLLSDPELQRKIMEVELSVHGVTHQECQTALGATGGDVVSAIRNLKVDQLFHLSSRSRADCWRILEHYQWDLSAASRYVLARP
In short: (§1)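 Compounds at two concentrations, 0.1 μM and 0.5 μM, were screened for inhibition of 60 kinases in cell-free assays read out by radiolabeled ATP.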

[2] = target: T2, panel of 60 human kinases (Homo sapiens, UniProt P53778); conditions: P38g; 0.1 μM; 10 μM ATP; read-out: % Enzyme Activity (relative to DSMO controls)
T2 construct: purchased Reaction Biology Corp
T2 sequence (P53778 1-367): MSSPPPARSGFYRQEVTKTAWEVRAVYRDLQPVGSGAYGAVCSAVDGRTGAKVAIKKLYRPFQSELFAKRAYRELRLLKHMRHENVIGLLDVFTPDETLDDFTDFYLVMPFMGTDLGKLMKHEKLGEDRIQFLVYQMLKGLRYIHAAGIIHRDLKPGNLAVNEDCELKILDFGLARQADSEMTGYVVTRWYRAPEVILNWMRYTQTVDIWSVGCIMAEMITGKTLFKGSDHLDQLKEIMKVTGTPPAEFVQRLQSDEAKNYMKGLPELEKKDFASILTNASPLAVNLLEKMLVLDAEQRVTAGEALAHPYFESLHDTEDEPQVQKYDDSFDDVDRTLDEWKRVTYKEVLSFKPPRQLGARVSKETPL
In short: as §1

[3] = target: T3, panel of 60 human kinases (Homo sapiens, UniProt Q15139); conditions: PKCmu/PRKD1; 0.1 μM; 10 μM ATP; read-out: % Enzyme Activity (relative to DSMO controls)
T3 construct: purchased Reaction Biology Corp
T3 sequence (Q15139 1-912): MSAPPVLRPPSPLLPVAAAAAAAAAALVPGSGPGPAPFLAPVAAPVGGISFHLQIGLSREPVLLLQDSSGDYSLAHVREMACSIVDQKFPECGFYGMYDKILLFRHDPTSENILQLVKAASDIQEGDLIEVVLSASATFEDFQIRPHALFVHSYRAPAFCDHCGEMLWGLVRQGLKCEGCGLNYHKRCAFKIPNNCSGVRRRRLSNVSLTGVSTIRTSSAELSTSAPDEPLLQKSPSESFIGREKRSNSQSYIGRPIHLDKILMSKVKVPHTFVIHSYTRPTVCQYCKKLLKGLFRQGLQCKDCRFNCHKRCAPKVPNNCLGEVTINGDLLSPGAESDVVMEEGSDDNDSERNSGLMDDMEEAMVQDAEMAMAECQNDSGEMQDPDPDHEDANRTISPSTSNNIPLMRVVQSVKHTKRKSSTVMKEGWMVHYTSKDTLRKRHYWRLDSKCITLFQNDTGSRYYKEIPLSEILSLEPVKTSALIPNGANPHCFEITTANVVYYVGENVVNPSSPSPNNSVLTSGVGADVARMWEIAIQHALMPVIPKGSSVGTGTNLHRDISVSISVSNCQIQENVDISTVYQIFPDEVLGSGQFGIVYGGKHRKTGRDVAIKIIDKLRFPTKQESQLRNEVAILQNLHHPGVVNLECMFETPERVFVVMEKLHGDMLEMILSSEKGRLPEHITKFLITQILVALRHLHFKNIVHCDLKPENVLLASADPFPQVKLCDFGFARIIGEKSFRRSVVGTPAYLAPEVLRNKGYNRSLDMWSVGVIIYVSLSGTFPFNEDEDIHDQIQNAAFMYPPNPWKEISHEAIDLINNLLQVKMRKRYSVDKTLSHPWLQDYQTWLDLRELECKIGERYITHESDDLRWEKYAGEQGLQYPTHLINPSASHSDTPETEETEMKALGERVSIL
In short: as §1

| SMILES | remaining activity at 0.1 µM [1] [%] | remaining activity at 0.1 µM [2] [%] | remaining activity at 0.1 µM [3] [%] |
| --- | --- | --- | --- |
| CN1CCN(Cc2ccc(-c3cnc4[nH]cc(-c5ccc6[nH]ccc6c5)c4c3)cc2)CC1 [Compound 1, 3-(1H-Indol-5-yl)-5-(4-((4-methylpiperazin-1-yl)methyl)phenyl)-1H-pyrrolo[2,3-b]pyridine, reference compound] | 28.8 | 99.3 | 11.4 |
| CN1CCN(Cc2ccc(-c3cnc4[nH]cc(-c5ccccc5Cl)c4c3)cc2)CC1 [Compound 7as, 3-(2-Chlorophenyl)-5-(4-((4-methylpiperazin-1-yl)methyl)phenyl)-1H-pyrrolo[2,3-b]pyridine] | 33.9 | 109 | 9.63 |
| CN1CCN(Cc2ccc(-c3cnc4[nH]cc(-c5cnn(Cc6ccccc6)c5)c4c3)cc2)CC1 [Compound 7ah, 3-(1-Benzyl-1H-pyrazol-4-yl)-5-(4-((4-methylpiperazin-1-yl)methyl)phenyl)-1H-pyrrolo[2,3-b]pyridine] | 37.8 | 106 | 4.39 |
| CN1CCN(Cc2ccc(-c3cnc4[nH]cc(-c5ccncc5)c4c3)cc2)CC1 [Compound 7n, 5-(4-((4-Methylpiperazin-1-yl)methyl)phenyl)-3-(pyridin-4-yl)-1H-pyrrolo[2,3-b]pyridine] | 87.8 | 114 | 31.5 |
| COc1ccccc1-c1c[nH]c2ncc(-c3ccc(CN4CCN(C)CC4)cc3)cc12 [Compound 7at, 3-(2-Methoxyphenyl)-5-(4-((4-methylpiperazin-1-yl)methyl)phenyl)-1H-pyrrolo[2,3-b]pyridine] | 38.4 | 103 | 38.7 |
| CN1CCN(Cc2ccc(-c3cnc4[nH]cc(-c5cccc(Cl)c5)c4c3)cc2)CC1 [Compound 7ad, 3-(3-Chlorophenyl)-5-(4-((4-methylpiperazin-1-yl)methyl)phenyl)-1H-pyrrolo[2,3-b]pyridine] | 53.5 | 108 | 9.7 |
| CN1CCN(Cc2ccc(-c3cnc4[nH]cc(-c5ccoc5)c4c3)cc2)CC1 [Compound 7w, 3-(Furan-3-yl)-5-(4-((4-methylpiperazin-1-yl)methyl)phenyl)-1H-pyrrolo[2,3-b]pyridine] | 73.2 | 116 | 20.4 |
| CN1CCN(Cc2ccc(-c3cnc4[nH]cc(-c5ccc6c(c5)OCCO6)c4c3)cc2)CC1 [Compound 7d, 3-(2,3-Dihydrobenzo[b][1,4]dioxin-6-yl)-5-(4-((4-methylpiperazin-1-yl)methyl)phenyl)-1H-pyrrolo[2,3-b]pyridine] | 44.3 | 108 | 4.34 |
| Cc1nn(C)c(C)c1-c1c[nH]c2ncc(-c3ccc(CN4CCN(C)CC4)cc3)cc12 [Compound 7ai, 5-(4-((4-Methylpiperazin-1-yl)methyl)phenyl)-3-(1,3,5-trimethyl-1H-pyrazol-4-yl)-1H-pyrrolo[2,3-b]pyridine] | 63.6 | 106 | 14.2 |
